Results published in ChEMBL document CHEMBL4507276 (2021).

Legend:
[1] = target: Peripheral plasma membrane protein CASK (Homo sapiens) (UniProt O14936); conditions: Compound concentration 1000.0 nM
[2] = target: Mitotic checkpoint serine/threonine-protein kinase BUB1 (Homo sapiens) (UniProt O43683); conditions: Compound concentration 1000.0 nM
[3] = target: BMP-2-inducible protein kinase (Homo sapiens) (UniProt Q9NSY1); conditions: Compound concentration 1000.0 nM
[4] = target: Tyrosine-protein kinase JAK2 (Homo sapiens) (UniProt O60674); conditions: Compound concentration 1000.0 nM
[5] = target: Insulin receptor-related protein (Homo sapiens) (UniProt P14616); conditions: Compound concentration 1000.0 nM
[6] = target: Cyclin-dependent kinase 17 (Homo sapiens) (UniProt Q00537); conditions: Compound concentration 1000.0 nM
[7] = target: Mitogen-activated protein kinase kinase kinase 4 (Homo sapiens) (UniProt Q9Y6R4); conditions: Compound concentration 1000.0 nM
[8] = target: Serine/threonine-protein kinase Chk2 (Homo sapiens) (UniProt O96017); conditions: Compound concentration 1000.0 nM
[9] = target: Tyrosine-protein kinase JAK1 (Homo sapiens) (UniProt P23458); conditions: Compound concentration 1000.0 nM
[10] = target: Serine/threonine-protein kinase PLK4 (Homo sapiens) (UniProt O00444); conditions: Compound concentration 1000.0 nM
[11] = target: GABA-A receptor; anion channel (Rattus norvegicus) (UniProt O09028+P15431+P18506+P18508+P19969+P20236+P23574+P23576+P28471+P28473+P30191+P62813+P63079+P63138+Q91ZM7+Q9ES14); conditions: Compound concentration 10.0 uM
[12] = target: T1, Tyrosine-protein kinase JAK3 (Homo sapiens) (UniProt P52333); conditions: Compound concentration 1000.0 nM
T1 sequence (whole entry): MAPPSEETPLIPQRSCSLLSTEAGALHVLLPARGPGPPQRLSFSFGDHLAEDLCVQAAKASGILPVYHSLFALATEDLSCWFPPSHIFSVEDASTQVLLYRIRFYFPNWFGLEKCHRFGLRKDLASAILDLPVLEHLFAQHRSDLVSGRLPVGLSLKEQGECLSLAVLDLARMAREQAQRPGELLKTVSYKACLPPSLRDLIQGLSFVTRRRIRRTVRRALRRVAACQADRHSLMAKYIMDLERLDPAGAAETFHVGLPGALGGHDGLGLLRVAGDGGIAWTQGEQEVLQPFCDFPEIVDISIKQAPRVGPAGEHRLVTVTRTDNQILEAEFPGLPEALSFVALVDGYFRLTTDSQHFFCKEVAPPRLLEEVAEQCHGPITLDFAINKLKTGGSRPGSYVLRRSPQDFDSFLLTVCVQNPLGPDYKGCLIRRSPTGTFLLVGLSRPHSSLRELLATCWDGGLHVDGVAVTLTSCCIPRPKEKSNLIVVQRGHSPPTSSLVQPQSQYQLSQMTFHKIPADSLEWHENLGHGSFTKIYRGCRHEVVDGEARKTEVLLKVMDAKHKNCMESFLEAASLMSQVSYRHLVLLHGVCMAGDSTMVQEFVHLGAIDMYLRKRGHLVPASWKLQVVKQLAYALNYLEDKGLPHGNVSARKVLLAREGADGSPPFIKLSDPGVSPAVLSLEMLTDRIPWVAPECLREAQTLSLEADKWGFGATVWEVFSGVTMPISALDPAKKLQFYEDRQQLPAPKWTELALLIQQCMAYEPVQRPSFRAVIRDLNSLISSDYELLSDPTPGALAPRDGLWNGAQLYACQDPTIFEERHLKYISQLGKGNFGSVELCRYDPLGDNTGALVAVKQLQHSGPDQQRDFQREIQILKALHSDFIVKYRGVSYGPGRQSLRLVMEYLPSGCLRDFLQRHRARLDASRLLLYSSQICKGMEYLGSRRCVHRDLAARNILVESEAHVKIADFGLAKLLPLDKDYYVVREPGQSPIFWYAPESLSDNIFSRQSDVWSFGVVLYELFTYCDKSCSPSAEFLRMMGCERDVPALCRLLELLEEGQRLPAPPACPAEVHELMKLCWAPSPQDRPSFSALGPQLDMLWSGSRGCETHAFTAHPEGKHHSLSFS

[13] = target: Myosin-IIIb (Homo sapiens) (UniProt Q8WXR4); conditions: Compound concentration 1000.0 nM
[14] = target: Macrophage colony-stimulating factor 1 receptor (Homo sapiens) (UniProt P07333); conditions: Compound concentration 1000.0 nM
[15] = target: Casein kinase I isoform gamma-3 (Homo sapiens) (UniProt Q9Y6M4); conditions: Compound concentration 1000.0 nM
[16] = target: Mast/stem cell growth factor receptor Kit (Homo sapiens) (UniProt P10721); conditions: Compound concentration 1000.0 nM
[17] = target: Mitogen-activated protein kinase kinase kinase kinase 3 (Homo sapiens) (UniProt Q8IVH8); conditions: Compound concentration 1000.0 nM
[18] = target: Tyrosine-protein kinase ABL2 (Homo sapiens) (UniProt P42684); conditions: Compound concentration 1000.0 nM

Macrophage colony-stimulating factor 1 receptor (Homo sapiens), sequence (P07333 whole entry, canonical isoform): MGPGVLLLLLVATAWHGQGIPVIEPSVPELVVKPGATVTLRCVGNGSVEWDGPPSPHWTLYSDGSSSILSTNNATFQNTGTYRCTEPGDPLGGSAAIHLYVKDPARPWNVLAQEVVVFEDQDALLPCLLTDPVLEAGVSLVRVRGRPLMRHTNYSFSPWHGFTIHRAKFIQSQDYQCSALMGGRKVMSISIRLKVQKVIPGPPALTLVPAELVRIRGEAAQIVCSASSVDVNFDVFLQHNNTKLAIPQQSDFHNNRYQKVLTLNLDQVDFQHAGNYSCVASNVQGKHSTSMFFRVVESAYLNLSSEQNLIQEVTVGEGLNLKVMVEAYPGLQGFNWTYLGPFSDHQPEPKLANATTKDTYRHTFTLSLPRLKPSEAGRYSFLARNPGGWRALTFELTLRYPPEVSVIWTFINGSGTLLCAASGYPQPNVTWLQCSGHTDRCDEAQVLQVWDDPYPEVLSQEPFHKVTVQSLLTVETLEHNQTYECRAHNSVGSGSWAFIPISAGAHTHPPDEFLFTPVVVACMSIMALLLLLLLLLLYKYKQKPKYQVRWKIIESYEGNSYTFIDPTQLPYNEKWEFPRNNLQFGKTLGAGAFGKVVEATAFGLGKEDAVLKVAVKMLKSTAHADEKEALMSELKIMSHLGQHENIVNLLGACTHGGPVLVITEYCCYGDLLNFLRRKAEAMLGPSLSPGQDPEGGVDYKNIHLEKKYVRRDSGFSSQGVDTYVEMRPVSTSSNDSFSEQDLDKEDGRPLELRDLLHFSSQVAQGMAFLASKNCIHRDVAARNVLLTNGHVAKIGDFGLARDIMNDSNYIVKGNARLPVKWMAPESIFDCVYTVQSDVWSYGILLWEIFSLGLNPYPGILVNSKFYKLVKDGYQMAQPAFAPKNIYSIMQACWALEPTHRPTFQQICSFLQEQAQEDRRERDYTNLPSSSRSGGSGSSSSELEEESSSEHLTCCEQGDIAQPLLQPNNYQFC
Tyrosine-protein kinase JAK1 (Homo sapiens), sequence (P23458 whole entry): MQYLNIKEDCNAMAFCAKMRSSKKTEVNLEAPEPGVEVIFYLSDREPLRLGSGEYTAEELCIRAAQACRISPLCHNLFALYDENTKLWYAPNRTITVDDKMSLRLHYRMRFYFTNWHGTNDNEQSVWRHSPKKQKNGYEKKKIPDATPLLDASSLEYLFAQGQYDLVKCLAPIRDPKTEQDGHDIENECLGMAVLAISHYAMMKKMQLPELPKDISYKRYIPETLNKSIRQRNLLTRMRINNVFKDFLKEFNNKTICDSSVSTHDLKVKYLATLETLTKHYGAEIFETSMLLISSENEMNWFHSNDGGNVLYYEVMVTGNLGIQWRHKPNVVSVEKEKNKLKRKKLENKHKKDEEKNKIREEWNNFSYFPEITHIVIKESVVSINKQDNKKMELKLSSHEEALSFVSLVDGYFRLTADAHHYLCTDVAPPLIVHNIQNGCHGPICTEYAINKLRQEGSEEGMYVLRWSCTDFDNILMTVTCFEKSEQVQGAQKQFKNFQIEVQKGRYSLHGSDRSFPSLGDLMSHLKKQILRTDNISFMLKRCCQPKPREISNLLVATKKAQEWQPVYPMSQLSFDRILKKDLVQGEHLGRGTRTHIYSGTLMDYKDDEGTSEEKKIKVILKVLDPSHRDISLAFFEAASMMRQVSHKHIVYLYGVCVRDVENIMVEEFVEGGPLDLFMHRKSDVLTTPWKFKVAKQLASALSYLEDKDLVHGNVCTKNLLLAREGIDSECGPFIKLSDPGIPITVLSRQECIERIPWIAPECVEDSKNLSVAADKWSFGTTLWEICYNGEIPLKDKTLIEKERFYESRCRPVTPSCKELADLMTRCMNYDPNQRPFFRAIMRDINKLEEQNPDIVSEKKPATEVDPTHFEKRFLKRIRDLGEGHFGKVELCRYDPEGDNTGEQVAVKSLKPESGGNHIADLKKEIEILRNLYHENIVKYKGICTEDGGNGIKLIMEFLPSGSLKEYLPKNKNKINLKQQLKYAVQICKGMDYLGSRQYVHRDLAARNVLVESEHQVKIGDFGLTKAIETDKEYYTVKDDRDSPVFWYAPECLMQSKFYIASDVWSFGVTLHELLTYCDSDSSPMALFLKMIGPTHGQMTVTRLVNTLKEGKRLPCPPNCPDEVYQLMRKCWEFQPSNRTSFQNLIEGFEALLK
Serine/threonine-protein kinase PLK4 (Homo sapiens), sequence (O00444 whole entry): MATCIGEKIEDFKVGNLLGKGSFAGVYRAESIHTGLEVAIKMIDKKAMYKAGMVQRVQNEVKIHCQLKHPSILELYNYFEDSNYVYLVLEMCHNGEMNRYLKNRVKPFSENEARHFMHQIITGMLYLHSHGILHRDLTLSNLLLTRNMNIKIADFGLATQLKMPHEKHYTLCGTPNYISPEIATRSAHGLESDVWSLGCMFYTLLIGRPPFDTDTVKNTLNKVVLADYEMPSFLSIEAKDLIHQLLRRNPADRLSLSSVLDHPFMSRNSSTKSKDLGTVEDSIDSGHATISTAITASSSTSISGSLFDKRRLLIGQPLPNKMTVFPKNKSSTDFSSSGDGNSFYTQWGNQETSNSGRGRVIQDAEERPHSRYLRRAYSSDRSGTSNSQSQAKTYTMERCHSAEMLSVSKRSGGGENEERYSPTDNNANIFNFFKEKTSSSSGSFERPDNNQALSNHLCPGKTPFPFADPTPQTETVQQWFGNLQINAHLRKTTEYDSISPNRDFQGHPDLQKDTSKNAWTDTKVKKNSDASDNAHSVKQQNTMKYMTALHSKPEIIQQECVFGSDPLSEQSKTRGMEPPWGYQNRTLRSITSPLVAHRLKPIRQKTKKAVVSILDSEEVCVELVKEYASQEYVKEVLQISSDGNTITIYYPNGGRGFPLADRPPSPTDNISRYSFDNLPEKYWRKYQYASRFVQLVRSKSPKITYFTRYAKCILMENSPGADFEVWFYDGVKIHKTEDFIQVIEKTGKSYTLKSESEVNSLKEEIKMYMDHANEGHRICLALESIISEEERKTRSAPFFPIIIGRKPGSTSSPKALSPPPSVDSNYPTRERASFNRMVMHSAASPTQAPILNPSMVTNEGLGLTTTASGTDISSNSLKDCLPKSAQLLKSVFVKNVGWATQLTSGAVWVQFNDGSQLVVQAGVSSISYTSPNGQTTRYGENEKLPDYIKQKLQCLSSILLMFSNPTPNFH
Tyrosine-protein kinase JAK2 (Homo sapiens), sequence (O60674 whole entry): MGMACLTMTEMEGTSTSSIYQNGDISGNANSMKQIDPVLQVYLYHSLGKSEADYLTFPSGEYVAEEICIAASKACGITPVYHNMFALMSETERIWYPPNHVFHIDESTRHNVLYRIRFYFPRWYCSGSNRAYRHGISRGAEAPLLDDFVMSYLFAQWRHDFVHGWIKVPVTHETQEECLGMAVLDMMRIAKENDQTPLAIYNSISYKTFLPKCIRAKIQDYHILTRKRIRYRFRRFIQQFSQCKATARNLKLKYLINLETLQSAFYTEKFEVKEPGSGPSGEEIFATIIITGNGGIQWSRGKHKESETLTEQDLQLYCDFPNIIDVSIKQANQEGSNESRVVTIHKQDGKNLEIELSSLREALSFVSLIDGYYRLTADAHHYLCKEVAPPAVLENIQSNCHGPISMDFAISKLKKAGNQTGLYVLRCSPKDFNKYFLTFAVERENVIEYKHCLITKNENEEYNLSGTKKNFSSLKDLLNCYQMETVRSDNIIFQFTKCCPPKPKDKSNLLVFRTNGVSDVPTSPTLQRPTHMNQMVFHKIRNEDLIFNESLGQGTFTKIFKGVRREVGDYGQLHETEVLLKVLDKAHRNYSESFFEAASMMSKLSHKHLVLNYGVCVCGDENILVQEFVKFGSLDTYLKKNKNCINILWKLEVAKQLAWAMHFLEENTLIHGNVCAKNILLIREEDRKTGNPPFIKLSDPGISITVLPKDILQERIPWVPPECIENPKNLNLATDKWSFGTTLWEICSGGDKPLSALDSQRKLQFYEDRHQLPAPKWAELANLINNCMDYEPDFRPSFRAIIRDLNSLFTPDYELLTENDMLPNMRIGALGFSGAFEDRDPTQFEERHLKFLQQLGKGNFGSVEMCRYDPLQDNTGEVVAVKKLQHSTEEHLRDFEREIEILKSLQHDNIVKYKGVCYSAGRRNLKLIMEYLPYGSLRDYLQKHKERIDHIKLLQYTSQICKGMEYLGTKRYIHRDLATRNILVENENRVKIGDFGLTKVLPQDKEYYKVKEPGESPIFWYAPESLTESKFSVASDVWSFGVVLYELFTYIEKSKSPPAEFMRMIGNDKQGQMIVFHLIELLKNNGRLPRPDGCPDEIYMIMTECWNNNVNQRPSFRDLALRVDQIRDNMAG
Cyclin-dependent kinase 17 (Homo sapiens), sequence (Q00537 whole entry, looked up): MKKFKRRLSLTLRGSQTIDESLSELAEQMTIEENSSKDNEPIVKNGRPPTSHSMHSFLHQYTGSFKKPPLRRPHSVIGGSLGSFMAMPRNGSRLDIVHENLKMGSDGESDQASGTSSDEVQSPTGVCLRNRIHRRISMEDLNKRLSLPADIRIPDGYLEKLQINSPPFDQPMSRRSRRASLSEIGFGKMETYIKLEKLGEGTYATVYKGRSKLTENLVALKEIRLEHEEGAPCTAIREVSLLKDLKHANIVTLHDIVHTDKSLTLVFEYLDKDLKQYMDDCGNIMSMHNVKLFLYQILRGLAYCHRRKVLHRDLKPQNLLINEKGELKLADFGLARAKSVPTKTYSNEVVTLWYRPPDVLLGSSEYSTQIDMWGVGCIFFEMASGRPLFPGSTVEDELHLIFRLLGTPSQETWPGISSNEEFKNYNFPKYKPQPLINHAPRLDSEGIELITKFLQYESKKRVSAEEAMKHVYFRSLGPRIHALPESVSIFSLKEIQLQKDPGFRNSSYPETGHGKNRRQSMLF

| Compound | residual activity [1] [%] | residual activity [2] [%] | residual activity [3] [%] | residual activity [4] [%] | residual activity [5] [%] | residual activity [6] [%] | residual activity [7] [%] | residual activity [8] [%] | residual activity [9] [%] | residual activity [10] [%] | inhibition [11] [%] | residual activity [12] [%] | residual activity [13] [%] | residual activity [14] [%] | residual activity [15] [%] | residual activity [16] [%] | residual activity [17] [%] | residual activity [18] [%] |
| --- | --- | --- | --- | --- | --- | --- | --- | --- | --- | --- | --- | --- | --- | --- | --- | --- | --- | --- |
| CN(C)C(=O)Cn1cc(-c2nc(C3(c4ccc(-c5cnc(N)nc5)cc4)CC3)no2)cn1 [BI 0153] | 76 | 75 | 99 | 65 | 100 | 100 | 92 | 100 | 100 | 100 | 19.4 | 80 | 100 | 84 | 100 | 77 | 89 | 84 |
| CN(C)C(=O)Cn1cc(-c2nc([C@@](C)(c3ccc(-c4cnc(N)nc4)cc3)C3CC3)no2)cn1 [BI 665915] | 82 | 75 | 100 | 73 | 99 | 96 | 91 | 100 | 33 | 74 | 25.5 | 95 | 70 | 96 | 95 | 86 | 100 | 100 |
